Read-outs that look alike come from different tables or passages of the source.
Legend:
NUGC-3 cells = assay: Anti-proliferation effect on NUGC-3 cells (Cell Counting Kit-8); format: cell-based; settings: Homo sapiens, NUGC-3, 120 h; 5 days of treatment
Protocol: Cell line NUGC-3 (JCRB, JCRB0822) was cultured in RPMI 1640 (Invitrogen, 11875-085) medium supplemented with 10% (v/v) fetal bovine serum (BI, 04-002-1A), according to the standard instructions of the American Type Culture Collection. The cell line was authenticated by short tandem repeat profiling.
In the proliferation assay, 1000 NUGC-3 cells were seeded in a 96-well flat clear bottom, TC-treated plate (Corning, 3903) in 200 μL of medium per well, and allowed to recover overnight in culture medium. Compounds were added with increasing concentration, with DMSO treatment serving as a […] control. After 5 days of treatment, the plate was equilibrated to room temperature for 30 minutes, and the number of living cells was measured by the addition of the Cell Counting Kit-8 reagent (MCE, HY-K0301). Absorbance was measured on an Enspire (Perkin elme). The relative viability of each group was presented as the percentage change relative to the […] control group and then fit to a four-parameter logit non-linear curve using the program XLFit (IDBS)

CYP2C9 = CYP2C9 (Homo sapiens (Human), UniProt P11712); assay: Inhibitory activity on CYP isoenzymes at a single concentration; format: in vitro ADME; settings: pH 7.4, probe diclofenac; final compound concentration 10 μM; human liver microsomes; substrate diclofenac; read-out: Inhibition rate (%) CYP2C9
Source text: (§1) The buffer was filtered through a 0.45 μm filter.

CYP2D6 = CYP2D6 (Homo sapiens (Human), UniProt P10635); assay: as above; format: in vitro ADME; settings: pH 7.4, probe dextromethorphan; final compound concentration 10 μM; human liver microsomes; substrate dextromethorphan; read-out: Inhibition rate (%) CYP2D6
Source text: as §1

CYP3A4/5 [1] = assay: as above; format: in vitro ADME; settings: final compound concentration 10 μM, human liver microsomes
Source text: as §1

CYP3A4/5 [2] = assay: Multi-concentration inhibitory activity curve of CYP3A4/5 enzymes; format: in vitro ADME; settings: human liver microsomes
Protocol: as §1
Liver microsome working solution (final system concentration of 0.5 mg/mL) was prepared. […] The above stock solution was diluted with acetonitrile (4-fold dilution, 6 non-zero concentrations).
The half-maximal inhibitory concentration (IC50) was calculated using Graph Pad Prism.

[3] = Metabolic stability test in hepatocytes; format: in vitro ADME; settings: cryopreserved hepatocytes in suspension; for hepatocyte CLint at 1 μM: read-out: In vitro Clint (μL/min/10^6 cells); for half-life at 1 μM: read-out: In vitro t1/2
Protocol: The test compound and the control drug verapamil powder were prepared into a high concentration stock solution using DMSO, and diluted to a 100 μM working solution with 50% acetonitrile/water before use, with final concentrations of 1 μM for the test compound and verapamil.
• 1) 49.5 mL of Williams' Medium E and 0.5 mL GlutaMAX were mixed as the incubation solution. The hepatocyte recovery solution and the incubation solution were pre-warmed in a 37° C. water bath for at least 15 minutes prior to use. • 2) A tube of cryopreserved hepatocytes was taken, ensuring that the hepatocytes were still in a cryogenic frozen state prior to resuscitation. The hepatocytes were quickly placed in a 37° C. water bath and gently shaken until all ice crystals were completely dispersed, sprayed with 70% ethanol and transferred to a biosafety cabinet. • 3) The contents of the hepatocyte tube were poured into a centrifuge tube containing 50 mL of recovery medium, which were centrifuged at 100 g for 10 minutes. After centrifugation, the recovery medium was aspirated, and sufficient incubation medium was added to obtain a cell suspension having a cell density of approximately 1.5×10^6 cells/mL. • 4) Cellometer Vision was used to count hepatocytes and determine the density of viable cells. The survival rate of hepatocytes must be greater than 75%. The hepatocyte suspension was diluted with incubation medium to a viable cell density of 0.5×10^6 cells/mL. • 5) A portion of hepatocyte suspension with a density of 0.5×10^6 cells/mL was boiled in water for 5 minutes to inactivate as a negative control. After cells were inactivated, substrate conversion mediated by non-cellular enzymes could be easily investigated.
• 1) 198 μL of the suspension of live or inactivated cells was transferred to a 96-well deep-well plate, which was then placed on a vortexer and preheated in an incubator for 10 minutes. Live cells were incubated in duplicate, while inactivated cells were incubated in single. • 2) 2 μL of 100 μM test compound or verapamil was added to each well for the reaction initiation, and the deep-well plate was placed back on the incubator vortexer. • 3) 25 μL of the suspension were taken from the incubated samples at 0, 15, 30, 60, 90, and 120 minutes, respectively, and added to 150 μL of acetonitrile containing internal standards (200 nM alprazolam, 200 nM labetalol, 2 μM ketoprofen, and 200 nM caffeine) to terminate the reaction. The mixture was vortexed for 10 minutes and centrifuged at 3220 g and 4° C. for 30 minutes. After centrifugation was completed, 100 μL of the supernatant and 100 μL of ultra-pure water were mixed well for UPLC-MS/MS analysis detection.
All data calculations were performed using Microsoft Excel software. Peak areas were detected by extracting the ion chromatogram. The in vitro half-life (t1/2) of the parent drug was detected by linear fitting of the natural logarithm of the percentage of parent drug […] with time.
The in vitro half-life (t1/2) was calculated by the slope: […]
In vitro intrinsic clearance (unit μL/min/10^6 cells) was calculated using the following formula:
[formula] • V=incubation volume per well (0.2 mL); • N=number of cells per well (0.1×10^6 cells)

[4] = target: voltage-gated potassium channel hERG (Homo sapiens (Human), UniProt Q12809); assay: hERG potassium channel inhibitory activity test (manual patch clamp, HEK293); format: cell-based; settings: HEK293 cells stably expressing hERG
Protocol: This experiment was conducted to detect the effect of compounds in five concentrations on hERG channel current, obtaining a dose-effect curve and calculating the IC50.
Cell line and cell culture: HEK293 cell line stably expressing the hERG ion channel (Cat. No.: K1236) was purchased from Invitrogen Company. […] When the cell density grows to 40% to 80% of the bottom area of the culture dish, the cells were digested with trypsin and passaged three times per week. Prior to the experiment, cells were cultured in a 3.5 cm culture dish at a density of 5×10^5, induced with 1 μg/mL doxycycline for 48 hours, and then the cells were digested and seeded on glass slides for subsequent manual patch clamp experiments. […]
Experimental procedure: A coverslip loaded with HEK293 cells in a culture dish was placed in the perfusion chamber of the microscope stage. […] The hERG current used to detect the test compound was continuously recorded for 120 seconds before administration to evaluate the stability of the hERG current generated by the test cells. […] Test of the inhibitory effect of the test compound on hERG current: First, the hERG current measured in the extracellular fluid containing 0.1% DMSO was used as the detection baseline. […] After each perfusion was completed, approximately 5 minutes were waited to allow the compounds to fully act on the cells, and hERG currents were synchronously recorded.

[5] = pH 7.4, probe midazolam, substrate midazolam, read-out: Inhibition rate (%) CYP3A4/5 (Midazolam)
[6] = pH 7.4, probe midazolam, substrate midazolam, read-out: CYP3A4/5 IC50 (μM) (Midazolam)
[7] = pH 7.4, probe testosterone, substrate testosterone, read-out: CYP3A4/5 IC50 (μM) (Testosterone)

CYP2C9, sequence (P11712 whole entry): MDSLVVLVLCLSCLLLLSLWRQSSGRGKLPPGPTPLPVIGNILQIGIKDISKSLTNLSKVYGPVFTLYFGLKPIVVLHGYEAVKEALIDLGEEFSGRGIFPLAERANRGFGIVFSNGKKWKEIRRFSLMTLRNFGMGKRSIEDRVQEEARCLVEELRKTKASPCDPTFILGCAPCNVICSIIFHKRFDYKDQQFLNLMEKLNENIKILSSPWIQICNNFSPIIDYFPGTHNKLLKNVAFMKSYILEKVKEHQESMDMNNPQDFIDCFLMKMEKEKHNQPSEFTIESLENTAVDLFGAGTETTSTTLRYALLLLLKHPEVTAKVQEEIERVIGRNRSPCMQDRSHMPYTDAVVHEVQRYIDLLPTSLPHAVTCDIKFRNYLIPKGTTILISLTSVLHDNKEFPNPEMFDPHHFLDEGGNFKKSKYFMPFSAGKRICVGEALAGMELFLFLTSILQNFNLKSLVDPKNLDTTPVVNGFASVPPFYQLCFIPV
voltage-gated potassium channel hERG, sequence (Q12809 whole entry): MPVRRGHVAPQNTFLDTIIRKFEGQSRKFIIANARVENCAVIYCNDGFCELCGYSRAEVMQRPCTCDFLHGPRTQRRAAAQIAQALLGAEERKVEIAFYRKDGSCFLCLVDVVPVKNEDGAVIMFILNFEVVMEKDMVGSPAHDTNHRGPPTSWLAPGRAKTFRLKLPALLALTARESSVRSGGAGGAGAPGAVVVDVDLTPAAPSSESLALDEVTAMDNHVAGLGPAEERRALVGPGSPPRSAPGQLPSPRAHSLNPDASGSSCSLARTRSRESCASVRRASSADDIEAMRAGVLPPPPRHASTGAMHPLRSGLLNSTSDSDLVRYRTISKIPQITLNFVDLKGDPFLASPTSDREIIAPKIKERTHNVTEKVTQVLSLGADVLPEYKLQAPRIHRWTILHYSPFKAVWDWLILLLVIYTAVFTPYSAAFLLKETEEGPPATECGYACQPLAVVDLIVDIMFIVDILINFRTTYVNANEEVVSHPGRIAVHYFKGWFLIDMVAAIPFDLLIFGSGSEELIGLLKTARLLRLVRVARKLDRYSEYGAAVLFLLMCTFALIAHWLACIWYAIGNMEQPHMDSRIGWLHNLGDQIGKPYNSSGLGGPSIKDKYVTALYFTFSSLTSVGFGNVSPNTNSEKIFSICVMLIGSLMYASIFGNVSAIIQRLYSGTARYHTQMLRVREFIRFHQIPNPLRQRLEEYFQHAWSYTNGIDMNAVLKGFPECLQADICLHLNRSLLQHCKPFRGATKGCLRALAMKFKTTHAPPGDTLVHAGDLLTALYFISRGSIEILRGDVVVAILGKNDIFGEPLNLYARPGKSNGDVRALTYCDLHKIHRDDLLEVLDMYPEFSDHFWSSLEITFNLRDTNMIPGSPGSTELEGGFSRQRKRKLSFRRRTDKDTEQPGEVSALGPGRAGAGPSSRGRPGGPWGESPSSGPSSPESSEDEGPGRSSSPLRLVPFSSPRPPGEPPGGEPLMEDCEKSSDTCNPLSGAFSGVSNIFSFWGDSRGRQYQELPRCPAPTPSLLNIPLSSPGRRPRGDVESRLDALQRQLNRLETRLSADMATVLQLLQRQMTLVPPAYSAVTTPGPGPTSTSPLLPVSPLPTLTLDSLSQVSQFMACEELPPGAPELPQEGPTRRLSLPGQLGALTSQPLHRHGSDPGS
CYP2D6, sequence (P10635 whole entry): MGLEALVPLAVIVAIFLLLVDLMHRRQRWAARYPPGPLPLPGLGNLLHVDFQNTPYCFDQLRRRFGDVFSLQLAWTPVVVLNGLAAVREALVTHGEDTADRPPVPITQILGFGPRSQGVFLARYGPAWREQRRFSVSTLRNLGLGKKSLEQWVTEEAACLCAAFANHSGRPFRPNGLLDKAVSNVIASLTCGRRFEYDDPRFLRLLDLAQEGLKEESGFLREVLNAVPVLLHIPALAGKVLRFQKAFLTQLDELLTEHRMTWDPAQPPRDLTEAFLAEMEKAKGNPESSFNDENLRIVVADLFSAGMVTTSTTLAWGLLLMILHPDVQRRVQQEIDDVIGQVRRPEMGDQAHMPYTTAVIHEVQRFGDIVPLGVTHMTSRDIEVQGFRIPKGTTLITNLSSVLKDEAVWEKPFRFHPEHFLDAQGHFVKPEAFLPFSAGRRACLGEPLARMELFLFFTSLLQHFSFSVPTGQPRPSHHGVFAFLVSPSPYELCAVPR

Row | inhibition at 10 min, 10 µM (CYP2C9) [%] | inhibition at 10 min, 10 µM (CYP2D6) [%] | inhibition at 10 min, 10 µM (CYP3A4/5 [1]; [5]) [%] | IC50 at 10 min (CYP3A4/5 [2]; [6]) [µM] | IC50 at 10 min (CYP3A4/5 [2]; [7]) [µM] | hepatocyte CLint at 1 μM ([3]; Human hepatocytes) [µL/min/1e6 cells] | half-life at 1 μM ([3]; Human hepatocytes) [h] | hepatocyte CLint at 1 μM ([3]; Mouse hepatocytes) [µL/min/1e6 cells] | half-life at 1 μM ([3]; Mouse hepatocytes) [h] | hepatocyte CLint at 1 μM ([3]; Rat hepatocytes) [µL/min/1e6 cells] | half-life at 1 μM ([3]; Rat hepatocytes) [h] | inhibition at 10 min, 10 µM (CYP3A4/5 [1]; pH 7.4, probe testosterone, substrate testosterone, NI: no inhibition, read-out: Inhibition rate (%) CYP3A4/5 (Testosterone)) [%] | Compound | IC50 (NUGC-3 cells) [µM] | IC50 [4] [µM]
1 | 8.9 | 7.2 | 8.7 | > 50 | > 50 | < 2.7 | > 8.52 | < 2.7 | > 8.52 | < 2.7 | > 8.52 | – | [2H]C([2H])([2H])Oc1nc(C(=O)NS(C)(=O)=O)ccc1NCC#Cc1cc2c(N[C@@H]3CCN(C)C[C@@H]3F)cccn2c1CC(F)(F)F [Cpd-2, 5-((3-(8-(((3S,4R)-3-Fluoro-1-methylpiperidin-4-yl)amino)-3-(2,2,2-trifluoroethyl)indolizin-2-yl)prop-2-yn-1-yl)amino)-6-(methoxy-d3)-N-(methylsulfonyl)picolinamide] | 0.058 | > 30
2 | 6.7 | 1.6 | 9.8 | > 50 | > 50 | < 2.7 | > 8.52 | < 2.7 | > 8.52 | < 2.7 | > 8.52 | 3.7 | COc1nc(C(=O)NS(C)(=O)=O)ccc1NCC#Cc1cc2c(N[C@@H]3CCN(C)C[C@@H]3F)cccn2c1CC(F)(F)F [Cpd-1, 5-((3-(8-(((3S,4R)-3-Fluoro-1-methylpiperidin-4-yl)amino)-3-(2,2,2-trifluoroethyl)indolizin-2-yl)prop-2-yn-1-yl)amino)-6-methoxy-N-(methylsulfonyl)picolinamide] | 0.1 | > 30

Reference: patent publication US20250304578A1, “NITROGEN-CONTAINING FUSED HETEROCYCLIC COMPOUNDS OF N-SULFONAMIDE AND USE THEREOF” (NUTSHELL THERAPEUTICS (SHANGHAI) CO., LTD., priority 2023, published 2025)
